As a reminder, the mass density is mass per unit of volume. Broadly, the refractive index is a measure of how strongly the sample bends light.

The record followed here is the NIST ThermoML archive (doi:10.1021/je020053r).

For data set [1] the following is noted: 293.15 K; 101.33 kPa; Liquid.
A short description of data set [2]: refractive index (Na D-line) (dimensionless). The settings on record: 293.15 K; 101.33 kPa; Liquid; Standard Abbe refractometry.

± gives the expanded uncertainty stated by the source.

On to `O=Cc1ccco1` [2-furaldehyde], for which, in data set [1], the mass density is reported as 1128.5 ± 15 kg/m3. Regarding `CCCCCC` [hexane], the mass density in data set [1] turned out to be 659.3 ± 5 kg/m3. On to `O` [water], for which the refractive index in data set [2] amounted to 1.333 ± 0.0007.
